Laboratory results: US7071226B1, “Amino-functionalized 1,2,4-trioxanes useful as antimalarial agents and process for preparation thereof” (Council of Scientific and Industrial Research, priority 2004, dated 2006)
Read-outs that look alike come from different tables or passages of the source.

How the values were obtained:
[1] = test system: multidrug resistant strain of Plasmodium yoelii Nigeriensis; assay: Antimalarial activity against multidrug resistant P. yoelii in Swiss mice (4-day treatment, observed till day 28); assay type: in vivo; details: Swiss mice; for responders at 96 mg/kg/day / responders at 24 mg/kg/day / responders at 48 mg/kg/day: read-out: Mice alive on day-28 (converted)
Method: The antimalarial activity of the test compounds was evaluated in rodent using multidrug resistant strain of Plasmodium yoelii Nigeriensis in Swiss mice.
Random bred Swiss mice of either sex (20±2 gm) were inoculated intraperitoneally with 1×10^5 P. yoelii (MDR) parasites on day zero. Treatments with test compounds were administered to group of 5 mice each at different dose levels ranging between 12–96 mg/kg/day. Treatment was administered in groundnut oil intramuscularly and orally for 4 consecutive days (day 0–3). Blood smears from experimental mice were observed on day 4 and 7, day 10 and thereafter at regular intervals till day 28 or death of animal. Parasitaemia level on day 4 was compared with vehicle control group and percent suppression of parasitaemia in treated groups was calculated. […] The dose at which no parasitaemia develop during the observation period was reported as curative dose.

[2] = 96 mg/kg/day, im, day 0-3, in groundnut oil
[3] = 48 mg/kg/day, oral, day 0-3, in groundnut oil
[4] = Plasmodium yoelii, im, 96 h, 96 mg/kg/day, im, day 0-3, in groundnut oil, read-out: % Suppression on Day 4
[5] = Plasmodium yoelii, im, 672 h, 96 mg/kg/day, im, day 0-3
[6] = Plasmodium yoelii, po, 96 h, 96 mg/kg/day, oral, day 0-3, in groundnut oil, read-out: % Suppression on Day 4
[7] = Plasmodium yoelii, po, 672 h, 96 mg/kg/day, oral, day 0-3
[8] = Plasmodium yoelii, po, 96 h, 24 mg/kg/day, oral, day 0-3, in groundnut oil, read-out: % Suppression on Day 4
[9] = Plasmodium yoelii, po, 96 h, 48 mg/kg/day, oral, day 0-3, in groundnut oil, read-out: % Suppression on Day 4
[10] = 48 mg/kg/day, oral, day 0-3, 48 mg/kg/day
[11] = Plasmodium yoelii, po, 672 h, 24 mg/kg/day, oral, day 0-3
[12] = Plasmodium yoelii, po, 672 h, 48 mg/kg/day, oral, day 0-3

For C=C(c1ccccc1)C1COC2(CCC(Nc3ccc(F)cc3)CC2)OO1 (centres unmarked), the melting point was 130 to 132 °C.
For C=C(c1ccc(-c2ccccc2)cc1)C1COC2(CCC(=O)CC2)OO1 (centres unmarked) [Compound 3b, 3-(1-Biphenyl-4yl-Vinyl)-1,2,5-Trioxaspiro[5.5]undec-9-one], the “Mice alive on day-28” value ([1]; 96 mg/kg/day, im, day 0-3) was 1/5 and the “% Suppression on Day 4” value [1, 2] was 100%.
With C=C(c1ccc(Cl)cc1)C1COC2(CCC(Nc3ccc(Cl)cc3)CC2)OO1 (centres unmarked) [Compound 4cc] the “Mice alive on day-28” value ([1]; 24 mg/kg/day, oral, day 0-3) was 4/5, the “% Suppression on Day 4” value ([1]; 24 mg/kg/day, oral, day 0-3, in groundnut oil) was 100% and the “Mice alive on day-28” value ([1]; 48 mg/kg/day, oral, day 0-3) was 5/5. For the same compound, the “% Suppression on Day 4” value [1, 3] was 100%.
In the case of C=C(c1ccc(Cl)cc1)C1COC2(CCC(Nc3ccc4c(c3)-c3ccccc3C4)CC2)OO1 (centres unmarked), the melting point is reported as 166 to 168 °C.
C=C(c1ccc(C)cc1)C1COC2(CCC(Nc3ccc(OC)cc3)CC2)OO1 (centres unmarked) [Compound 4eb, (4-Methoxy-Phenyl)-[3-(1-p-Tolyl-Vinyl)-1,2,5-Trioxa-Spiro[5.5]undec-9-yl]-Amine] gave an inhibition in vivo at 96 mg/kg/day [1, 4] of 93%, a responders at 96 mg/kg/day [1, 5] of 0% and an inhibition in vivo at 96 mg/kg/day [1, 6] of 100%. The responders at 96 mg/kg/day [1, 7] was 100%.
In the case of C=C(c1ccccc1)C1COC2(CCC(=O)CC2)OO1 (centres unmarked) [Compound 3a, 3-(1-Phenyl-Vinyl)-1,2,5-Trioxaspiro[5.5]undec-9-one], the “Mice alive on day-28” value ([1]; 96 mg/kg/day, im, day 0-3) is reported as 0/5 and the “% Suppression on Day 4” value [1, 2] is reported as 99%.
With C=C(c1ccc(-c2ccccc2)cc1)C1COC2(CCC(Nc3ccc(Cl)cc3)CC2)OO1 (centres unmarked) [Compound 4ba, [3-(1-Biphenyl-4-yl-Vinyl)-1,2,5-Trioxa-Spiro[5.5]undec-9-yl]-(4-Chloro-Phenyl)-Amine] the inhibition in vivo at 96 mg/kg/day [1, 6] was 100% and the responders at 96 mg/kg/day [1, 7] was 100%.
In the case of C=C(c1ccc(OC)cc1)C1COC2(CCC(Nc3ccccc3-c3ccccc3)CC2)OO1 (centres unmarked) [Compound 4dg, Biphenyl-2-yl-{3-[1-(4-methoxy-phenyl)-vinyl]-1,2,5-trioxa-spiro[5.5]undec-9-yl}-amine], the inhibition in vivo at 24 mg/kg/day [1, 8] is reported as 91%, the inhibition in vivo at 48 mg/kg/day [1, 9] is reported as 100% and the “Mice alive on day-28” value ([1]; 24 mg/kg/day, oral, day 0-3, 24 mg/kg/day) is reported as 1/5. The “Mice alive on day-28” value [1, 10] was 3/5.
In the case of C=C(c1ccc(OC)cc1)C1COC2(CCC(Nc3ccc(OC)cc3)CC2)OO1 (centres unmarked), the melting point is reported as 123 to 124 °C.
C=C(c1ccc(OC)cc1)C1COC2(CCC(Nc3cccc(C(F)(F)F)c3)CC2)OO1 (centres unmarked) [Compound 4dm, {3-[1-(4-Methoxy-Phenyl)-Vinyl]-1,2,5-Trioxa-Spiro[5.5]undec-9-yl}-(3-Trifluoromethyl-Phenyl)-Amine] showed an inhibition in vivo at 96 mg/kg/day [1, 4] of 100%, a responders at 96 mg/kg/day [1, 5] of 0% and an inhibition in vivo at 24 mg/kg/day [1, 8] of 100%. For the same compound, the inhibition in vivo at 48 mg/kg/day [1, 9] was 100%, the inhibition in vivo at 96 mg/kg/day [1, 6] was 100% and the responders at 24 mg/kg/day [1, 11] was 100%. It also gave a responders at 48 mg/kg/day [1, 12] of 100% and a responders at 96 mg/kg/day [1, 7] of 100%.
C=C(c1ccc(C)cc1)C1COC2(CCC(Nc3ccc(-c4ccccc4)cc3)CC2)OO1 (centres unmarked) [Compound 4ej, Biphenyl-4-yl-[3-(1-p-tolyl-vinyl)-1,2,5-trioxa-spiro[5.5]undec-9-yl]-amine] gave an inhibition in vivo at 96 mg/kg/day [1, 4] of 69%, a responders at 96 mg/kg/day [1, 5] of 0% and an inhibition in vivo at 48 mg/kg/day [1, 9] of 100%. It also gave an inhibition in vivo at 96 mg/kg/day [1, 6] of 100%, a responders at 48 mg/kg/day [1, 12] of 40% and a responders at 96 mg/kg/day [1, 7] of 100%.
For C=C(c1ccccc1)C1COC2(CCC(Nc3ccccc3-c3ccccc3)CC2)OO1 (centres unmarked) [Compound 4ac, Biphenyl-2-yl-[3-(1-Phenyl-Vinyl)-1,2,5-Trioxa-Spiro[5.5]undec-9-yl]Amine], the inhibition in vivo at 96 mg/kg/day [1, 4] was 74%, the responders at 96 mg/kg/day [1, 5] was 0% and the inhibition in vivo at 12 mg/kg/day ([1]; Plasmodium yoelii, po, 96 h, 12 mg/kg/day, oral, day 0-3, in groundnut oil, read-out: % Suppression on Day 4) was 100%. It also gave an inhibition in vivo at 24 mg/kg/day [1, 8] of 100%, a responders at 12 mg/kg/day ([1]; Plasmodium yoelii, po, 672 h, 12 mg/kg/day, oral, day 0-3, read-out: Mice alive on day-28) of 0% and a responders at 24 mg/kg/day [1, 11] of 40%. For the same compound, the “% Suppression on Day 4” value [1, 3] was 100%, the “Mice alive on day-28” value [1, 10] was 5/5 and the “Mice alive on day-28” value ([1]; 96 mg/kg/day, oral, day 0-3) was 5/5. For the same compound, the “% Suppression on Day 4” value ([1]; 96 mg/kg/day, oral, day 0-3, in groundnut oil) was 100%.
Compound C=C(c1ccc(OC)cc1)C1COC2(CCC(Nc3cccc4ccccc34)CC2)OO1 (centres unmarked) [Compound 4df, {3-[1-(4-Methoxy-phenyl)-vinyl]-1,2,5-trioxa-spiro[5.5]undec-9-yl}-naphthalen-1-yl-amine] has an inhibition in vivo at 48 mg/kg/day [1, 9] of 100%, an inhibition in vivo at 96 mg/kg/day [1, 6] of 100% and a responders at 48 mg/kg/day [1, 12] of 40%. For the same compound, the responders at 96 mg/kg/day [1, 7] was 100%.
For C=C(c1ccc(C)cc1)C1COC2(CCC(Nc3ccc(Cl)cc3)CC2)OO1 (centres unmarked) [Compound 4ec, (4-Chloro-Phenyl)-[3-(1-p-Tolyl-Vinyl)-1,2,5-Trioxa-Spiro[5.5]undec-9-yl]-Amine], the inhibition in vivo at 96 mg/kg/day [1, 6] was 100% and the responders at 96 mg/kg/day [1, 7] was 100%.
Work on C=C(c1ccc(Cl)cc1)C1COC2(CCC(Nc3ccccc3-c3ccccc3)CC2)OO1 (centres unmarked) [Compound 4cj, Biphenyl-2-yl-{3-[1-(4-Chloro-Phenyl)-Vinyl]-1,2,5-Trioxa-Spiro[5.5]undec-9-yl}-Amine] yielded an inhibition in vivo at 24 mg/kg/day [1, 8] of 100%, an inhibition in vivo at 48 mg/kg/day [1, 9] of 100% and a responders at 24 mg/kg/day [1, 11] of 40%. The responders at 48 mg/kg/day [1, 12] was 100%.
With C=C(c1ccc(C)cc1)C1COC2(CCC(Nc3cc(Cl)cc(Cl)c3)CC2)OO1 (centres unmarked) [Compound 4ee, (3,5-Dichloro-Phenyl)-[3-(1-Tolyl-Vinyl)-1,2,5-Trioxa-Spiro[5.5]undec-9-yl]-Amine] the “Mice alive on day-28” value ([1]; 24 mg/kg/day, oral, day 0-3) was 0/5, the “% Suppression on Day 4” value ([1]; 24 mg/kg/day, oral, day 0-3, in groundnut oil, 24 mg/kg/day) was 81% and the “% Suppression on Day 4” value [1, 3] was 100%. The “Mice alive on day-28” value [1, 10] was 2/5.
